± gives the expanded uncertainty stated by the source.
Test: activity coefficient (dimensionless); of the first substance listed, at infinite dilution; xn = mol fraction of the nth substance listed
Details: 101.3 kPa, Liquid, Chromatography, x1 = 0

| activity coefficient (313.3 K) | activity coefficient (343.1 K) | activity coefficient (313.2 K) | activity coefficient (333.1 K) | activity coefficient (303.5 K) | activity coefficient (323.3 K) | activity coefficient (302.8 K) | activity coefficient (313.4 K) | activity coefficient (323.1 K) | activity coefficient (332.8 K) | activity coefficient (343.4 K) | Structure (SMILES) | other results |
| --- | --- | --- | --- | --- | --- | --- | --- | --- | --- | --- | --- | --- |
|  | 43.4 ± 3.8 | 56 ± 4.8 | 47.8 ± 4.1 | 60.5 ± 5.2 | 51.5 ± 4.5 |  |  |  |  |  | C=CCCCCCCCC [1-decene] + CCn1cc[n+](C)c1.N#C[B-](C#N)(C#N)C#N |  |
| 6.15 ± 0.53 | 5.59 ± 0.48 |  | 5.78 ± 0.5 | 6.33 ± 0.55 | 5.97 ± 0.52 |  |  |  |  |  | C#CCCCCC [1-heptyne] + CCn1cc[n+](C)c1.N#C[B-](C#N)(C#N)C#N |  |
| 4.04 ± 0.35 | 3.58 ± 0.31 |  | 3.77 ± 0.33 | 4.18 ± 0.36 | 3.92 ± 0.34 |  |  |  |  |  | C#CCCCC [1-hexyne] + CCn1cc[n+](C)c1.N#C[B-](C#N)(C#N)C#N |  |
| 9.42 ± 0.81 |  |  | 8.84 ± 0.76 | 9.64 ± 0.83 | 9.11 ± 0.79 |  |  |  |  |  | C#CCCCCCC [1-octyne] + CCn1cc[n+](C)c1.N#C[B-](C#N)(C#N)C#N | activity coefficient (342.8 K): 8.58 ± 0.74 |
| 2.61 ± 0.23 | 2.29 ± 0.2 |  | 2.38 ± 0.21 | 2.72 ± 0.23 | 2.5 ± 0.22 |  |  |  |  |  | C#CCCC [1-pentyne] + CCn1cc[n+](C)c1.N#C[B-](C#N)(C#N)C#N |  |
| 1.31 ± 0.11 |  |  |  |  |  |  |  |  |  |  | c1ccccc1 [benzene] + CCn1cc[n+](C)c1.N#C[B-](C#N)(C#N)C#N | activity coefficient (303.6 K): 1.31 ± 0.11; activity coefficient (323.2 K): 1.34 ± 0.11; activity coefficient (333.3 K): 1.31 ± 0.11; activity coefficient (343.2 K): 1.3 ± 0.11 |
|  |  |  |  |  |  | 13.8 ± 1.2 | 12.4 ± 1.1 | 11.2 ± 0.97 | 9.85 ± 0.85 | 8.64 ± 0.75 | C1CCCCC1 [cyclohexane] + CCn1cc[n+](C)c1.N#C[B-](C#N)(C#N)C#N |  |
| 1.5 ± 0.13 | 1.16 ± 0.1 |  | 1.27 ± 0.11 | 1.64 ± 0.14 | 1.37 ± 0.12 |  |  |  |  |  | CCO [ethanol] + CCn1cc[n+](C)c1.N#C[B-](C#N)(C#N)C#N |  |
|  |  | 3 ± 0.26 |  |  |  |  |  | 3.05 ± 0.26 |  |  | CCc1ccccc1 [ethylbenzene] + CCn1cc[n+](C)c1.N#C[B-](C#N)(C#N)C#N | activity coefficient (303.6 K): 3 ± 0.26; activity coefficient (333.2 K): 2.97 ± 0.26; activity coefficient (343.3 K): 2.92 ± 0.25 |
|  |  |  |  |  |  | 37.6 ± 3.3 | 32.2 ± 2.8 | 28.1 ± 2.4 | 23.8 ± 2.1 | 19.9 ± 1.7 | CCCCCCC [heptane] + CCn1cc[n+](C)c1.N#C[B-](C#N)(C#N)C#N |  |
|  | 6.27 ± 0.54 | 9.74 ± 0.84 | 7.35 ± 0.63 | 11.3 ± 0.97 | 8.39 ± 0.72 |  |  |  |  |  | C=CCCCC [hex-1-ene] + CCn1cc[n+](C)c1.N#C[B-](C#N)(C#N)C#N |  |
|  |  |  |  |  |  | 21 ± 1.8 | 17.4 ± 1.5 | 15.1 ± 1.3 | 12.5 ± 1.1 | 10.3 ± 0.89 | CCCCCC [hexane] + CCn1cc[n+](C)c1.N#C[B-](C#N)(C#N)C#N |  |
| 1.05 ± 0.09 | 0.85 ± 0.07 |  | 0.91 ± 0.08 | 1.13 ± 0.09 | 0.97 ± 0.08 |  |  |  |  |  | CO [methanol] + CCn1cc[n+](C)c1.N#C[B-](C#N)(C#N)C#N |  |
|  |  |  |  |  |  | 20.7 ± 1.8 | 18.9 ± 1.6 | 16.9 ± 1.5 | 15.2 ± 1.3 | 13.3 ± 1.1 | CC1CCCCC1 [methylcyclohexane] + CCn1cc[n+](C)c1.N#C[B-](C#N)(C#N)C#N |  |
|  |  |  |  |  |  | 85 ± 7.4 | 78.1 ± 6.8 | 70.8 ± 6.1 | 63.5 ± 5.5 | 55.3 ± 4.8 | CCCCCCCCC [nonane] + CCn1cc[n+](C)c1.N#C[B-](C#N)(C#N)C#N |  |
|  | 19 ± 1.6 | 26.8 ± 2.3 | 21.5 ± 1.9 | 30.1 ± 2.6 | 24 ± 2.1 |  |  |  |  |  | C=CCCCCCC [oct-1-ene] + CCn1cc[n+](C)c1.N#C[B-](C#N)(C#N)C#N |  |
|  |  |  |  |  |  | 58.9 ± 5.1 | 52.5 ± 4.5 | 46.7 ± 4 | 40.7 ± 3.5 | 34.9 ± 3 | CCCCCCCC [octane] + CCn1cc[n+](C)c1.N#C[B-](C#N)(C#N)C#N |  |
|  |  |  |  |  |  | 10.3 ± 0.89 | 8.21 ± 0.71 | 7.05 ± 0.61 | 5.92 ± 0.51 | 4.88 ± 0.42 | CCCCC [pentane] + CCn1cc[n+](C)c1.N#C[B-](C#N)(C#N)C#N |  |
| 1.92 ± 0.17 | 1.46 ± 0.12 |  | 1.6 ± 0.14 | 2.12 ± 0.18 | 1.74 ± 0.15 |  |  |  |  |  | CCCO [propan-1-ol] + CCn1cc[n+](C)c1.N#C[B-](C#N)(C#N)C#N |  |

| Structure (SMILES) | activity coefficient (313.3 K) | activity coefficient (343.1 K) | activity coefficient (313.2 K) | activity coefficient (333.1 K) | activity coefficient (303.5 K) | activity coefficient (323.3 K) | activity coefficient (302.8 K) | activity coefficient (313.4 K) | activity coefficient (323.1 K) | activity coefficient (332.8 K) | activity coefficient (343.4 K) | other results |
| --- | --- | --- | --- | --- | --- | --- | --- | --- | --- | --- | --- | --- |
| Cc1ccccc1C [1,2-dimethylbenzene] + CCn1cc[n+](C)c1.N#C[B-](C#N)(C#N)C#N | 2.53 ± 0.22 | 2.54 ± 0.22 |  |  |  |  |  |  |  |  |  | activity coefficient (303.6 K): 2.49 ± 0.21; activity coefficient (323.2 K): 2.58 ± 0.22; activity coefficient (333.2 K): 2.56 ± 0.22 |
| Cc1cccc(C)c1 [1,3-dimethylbenzene] + CCn1cc[n+](C)c1.N#C[B-](C#N)(C#N)C#N |  | 2.99 ± 0.26 | 2.99 ± 0.26 | 3.01 ± 0.26 |  |  |  |  |  |  |  | activity coefficient (303.6 K): 2.92 ± 0.25; activity coefficient (323.2 K): 3.03 ± 0.26 |
| Cc1ccc(C)cc1 [1,4-dimethylbenzene] + CCn1cc[n+](C)c1.N#C[B-](C#N)(C#N)C#N |  |  | 2.85 ± 0.25 |  |  |  |  |  |  |  |  | activity coefficient (303.7 K): 2.78 ± 0.24; activity coefficient (323.2 K): 2.87 ± 0.25; activity coefficient (333.3 K): 2.85 ± 0.25; activity coefficient (343.2 K): 2.84 ± 0.24 |
| Cc1ccccc1 [toluene] + CCn1cc[n+](C)c1.N#C[B-](C#N)(C#N)C#N |  |  | 1.92 ± 0.16 |  |  |  |  |  | 1.98 ± 0.17 |  |  | activity coefficient (303.6 K): 1.9 ± 0.16; activity coefficient (333.2 K): 1.94 ± 0.17; activity coefficient (343.3 K): 1.92 ± 0.16 |

Source: the NIST ThermoML archive (doi:10.1016/j.jct.2010.02.006)
